Test results reported in ChEMBL document CHEMBL1201862, “PubChem BioAssay data set” (2004).
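Where inhibition never reached the appropriate level, the endpoint shown equals the highest concentration tested. Otherwise, values were interpolated linearly from a five-concentration, 48-hour dose response in 96-well plates. GI50 = concentration required for 50% inhibition of growth.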 The source made the active and inactive calls. No stated cut-off is given here; in the data, active = GI50 up to about 1.1 µM and inactive = higher.

Legend:
Assay in all cases: growth of human tumour cells (NCI), 48 h
[1] = test system: 786-0
[2] = test system: MOLT-4
[3] = test system: CAKI-1
[4] = test system: XF498
[5] = test system: U-251
[6] = test system: Malme-3M
[7] = test system: SF-295
[8] = test system: SK-MEL-28
[9] = test system: OVCAR-4
[10] = test system: SW-620
[11] = test system: HT-29
[12] = test system: HCC 2998
[13] = test system: SK-MEL-5
[14] = test system: RXF 393
[15] = test system: RXF 631
[16] = test system: HCT-15
[17] = test system: HOP-92
[18] = test system: SN12C
[19] = test system: SF-539
[20] = test system: OVCAR-5
[21] = test system: UO-31
[22] = test system: UACC-62
[23] = test system: NCI-H23
[24] = test system: LXFL 529
[25] = test system: OVCAR-8
[26] = test system: DLD-1
[27] = test system: SR
[28] = test system: TK-10
[29] = test system: A549
[30] = test system: OVCAR-3
[31] = test system: EKVX
[32] = test system: COLO 205
[33] = test system: NCI-H522
[34] = test system: HL-60
[35] = test system: KM-20L2
[36] = test system: SK-OV-3
[37] = test system: IGROV-1
[38] = test system: M14
[39] = test system: SNB-19
[40] = test system: ACHN
[41] = test system: CCRF-CEM
[42] = test system: M19-MEL
[43] = test system: SNB-78
[44] = test system: SF-268
[45] = test system: KM12
[46] = test system: K562
[47] = test system: SK-MEL-2
[48] = test system: DMS-114
[49] = test system: LOX IMVI
[50] = test system: UACC-257
[51] = test system: A498
[52] = test system: HCT-116
[53] = test system: NCI-H460
[54] = test system: HOP-62
[55] = test system: SNB-75

Question: For COc1cc(/C=C(\NC(=O)c2ccccc2)c2nc3c(O)nc(S)nc3[nH]2)cc(OC)c1OC, which GI50 [1] is on record?
Answer: > 100 µM (inactive)

Question: What about the GI50 [2] of the same compound?
Answer: > 100 µM (inactive)

Question: What about the GI50 [3] of the same compound?
Answer: > 100 µM (inactive)

Question: And the GI50 [4]?
Answer: > 100 µM (inactive)

Question: And the GI50 [5]?
Answer: > 100 µM (inactive)

Question: And the GI50 [6]?
Answer: > 100 µM (inactive)

Question: And the GI50 [7]?
Answer: > 100 µM (inactive)

Question: And the GI50 [8]?
Answer: > 100 µM (inactive)

Question: What about the GI50 [9] of the same compound?
Answer: > 100 µM (inactive)

Question: What about the GI50 [10] of the same compound?
Answer: > 100 µM (inactive)

Question: And the GI50 [11]?
Answer: > 100 µM (inactive)

Question: What about the GI50 [12] of the same compound?
Answer: > 100 µM (inactive)

Question: What about the GI50 [13] of the same compound?
Answer: > 100 µM (inactive)

Question: And the GI50 [14]?
Answer: > 100 µM (inactive)

Question: What about the GI50 [15] of the same compound?
Answer: > 100 µM (inactive)

Question: And the GI50 [16]?
Answer: > 100 µM

Question: What about the GI50 [17] of the same compound?
Answer: 59.3 µM (inactive)

Question: What about the GI50 [18] of the same compound?
Answer: > 100 µM (inactive)

Question: What about the GI50 [19] of the same compound?
Answer: > 100 µM (inactive)

Question: What about the GI50 [20] of the same compound?
Answer: > 100 µM (inactive)

Question: And the GI50 [21]?
Answer: > 100 µM (inactive)

Question: What about the GI50 [22] of the same compound?
Answer: > 100 µM (inactive)

Question: What about the GI50 [23] of the same compound?
Answer: > 100 µM (inactive)

Question: And the GI50 [24]?
Answer: > 100 µM (inactive)

Question: What about the GI50 [25] of the same compound?
Answer: > 100 µM (inactive)

Question: And the GI50 [26]?
Answer: > 100 µM (inactive)

Question: And the GI50 [27]?
Answer: > 100 µM (inactive)

Question: What about the GI50 [28] of the same compound?
Answer: > 100 µM (inactive)

Question: What about the GI50 [29] of the same compound?
Answer: > 100 µM (inactive)

Question: And the GI50 [30]?
Answer: > 100 µM (inactive)

Question: And the GI50 [31]?
Answer: > 100 µM (inactive)

Question: What about the GI50 [32] of the same compound?
Answer: > 100 µM (inactive)

Question: And the GI50 [33]?
Answer: > 100 µM (inactive)

Question: What about the GI50 [34] of the same compound?
Answer: > 100 µM (inactive)

Question: And the GI50 [35]?
Answer: > 100 µM (inactive)

Question: What about the GI50 [36] of the same compound?
Answer: > 100 µM (inactive)

Question: What about the GI50 [37] of the same compound?
Answer: > 100 µM (inactive)

Question: And the GI50 [38]?
Answer: > 100 µM (inactive)

Question: What about the GI50 [39] of the same compound?
Answer: > 100 µM (inactive)

Question: What about the GI50 [40] of the same compound?
Answer: > 100 µM (inactive)

Question: And the GI50 [41]?
Answer: > 100 µM (inactive)

Question: What about the GI50 [42] of the same compound?
Answer: > 100 µM (inactive)

Question: What about the GI50 [43] of the same compound?
Answer: > 100 µM (inactive)

Question: And the GI50 [44]?
Answer: > 100 µM (inactive)

Question: What about the GI50 [45] of the same compound?
Answer: > 100 µM (inactive)

Question: What about the GI50 [46] of the same compound?
Answer: > 100 µM (inactive)

Question: And the GI50 [47]?
Answer: > 100 µM (inactive)

Question: What about the GI50 [48] of the same compound?
Answer: > 100 µM (inactive)

Question: How did the GI50 [2] turn out when Cc1cccc(NC(N)=S)c1 was run?
Answer: > 100 µM (inactive)

Question: What about the GI50 [49] of the same compound?
Answer: > 100 µM (inactive)

Question: And the GI50 [4]?
Answer: > 100 µM (inactive)

Question: And the GI50 [5]?
Answer: > 100 µM (inactive)

Question: And the GI50 [50]?
Answer: > 100 µM (inactive)

Question: What about the GI50 [6] of the same compound?
Answer: > 100 µM (inactive)

Question: What about the GI50 [8] of the same compound?
Answer: > 100 µM (inactive)

Question: And the GI50 [9]?
Answer: > 100 µM (inactive)

Question: And the GI50 [11]?
Answer: > 100 µM (inactive)

Question: And the GI50 [12]?
Answer: > 100 µM (inactive)

Question: And the GI50 [51]?
Answer: > 100 µM (inactive)

Question: What about the GI50 [14] of the same compound?
Answer: > 100 µM (inactive)

Question: What about the GI50 [15] of the same compound?
Answer: > 100 µM (inactive)

Question: What about the GI50 [16] of the same compound?
Answer: > 100 µM

Question: And the GI50 [18]?
Answer: > 100 µM (inactive)

Question: What about the GI50 [19] of the same compound?
Answer: > 100 µM (inactive)

Question: What about the GI50 [20] of the same compound?
Answer: > 100 µM (inactive)

Question: What about the GI50 [21] of the same compound?
Answer: > 100 µM (inactive)

Question: What about the GI50 [22] of the same compound?
Answer: > 100 µM (inactive)

Question: What about the GI50 [23] of the same compound?
Answer: > 100 µM (inactive)

Question: And the GI50 [24]?
Answer: > 100 µM (inactive)

Question: What about the GI50 [26] of the same compound?
Answer: > 100 µM (inactive)

Question: And the GI50 [27]?
Answer: > 100 µM (inactive)

Question: And the GI50 [28]?
Answer: > 100 µM (inactive)

Question: What about the GI50 [30] of the same compound?
Answer: > 100 µM (inactive)

Question: And the GI50 [31]?
Answer: > 100 µM (inactive)

Question: What about the GI50 [33] of the same compound?
Answer: > 100 µM (inactive)

Question: And the GI50 [52]?
Answer: > 100 µM (inactive)

Question: What about the GI50 [34] of the same compound?
Answer: > 100 µM (inactive)

Question: What about the GI50 [53] of the same compound?
Answer: > 100 µM (inactive)

Question: What about the GI50 [36] of the same compound?
Answer: > 100 µM (inactive)

Question: And the GI50 [38]?
Answer: > 100 µM (inactive)

Question: What about the GI50 [54] of the same compound?
Answer: > 100 µM (inactive)

Question: And the GI50 [39]?
Answer: > 100 µM (inactive)

Question: What about the GI50 [40] of the same compound?
Answer: > 100 µM (inactive)

Question: What about the GI50 [41] of the same compound?
Answer: > 100 µM (inactive)

Question: What about the GI50 [42] of the same compound?
Answer: > 100 µM (inactive)

Question: And the GI50 [43]?
Answer: > 100 µM (inactive)

Question: And the GI50 [44]?
Answer: > 100 µM (inactive)

Question: And the GI50 [45]?
Answer: > 100 µM (inactive)

Question: And the GI50 [46]?
Answer: > 100 µM (inactive)

Question: And the GI50 [47]?
Answer: > 100 µM (inactive)

Question: And the GI50 [55]?
Answer: > 100 µM (inactive)

Question: And the GI50 [48]?
Answer: > 100 µM (inactive)
